The text below walks through data of patent publication EP0624315B1, “Diaryl(pyridinio and isoquinolinio) boron fungicidal agents” (AMERICAN CYANAMID COMPANY, priority 1993, dated 1994).

One assay deals with Venturia inaequalis. Briefly: In vivo fungicidal evaluation, Apple Scab. Further: ranges in brackets are in %. As to conditions: 200 ppm, host plants sprayed, dried, then inoculated.
The next assay deals with Plasmopara viticola. Briefly: In vivo fungicidal evaluation, Grape Downy Mildew. Further: ranges in brackets are in %. As to conditions: 200 ppm, host plants sprayed, dried, then inoculated.
The test system of the next assay is Botrytis cinerea. Briefly: In vivo fungicidal evaluation, Pepper Botrytis. Further: ranges in brackets are in %. As to conditions: 200 ppm, host plants sprayed, dried, then inoculated.
Another assay concerns Pyricularia oryzae. The format is in vivo. The note with it: 200 ppm, host plants sprayed, dried, then inoculated.
A further assay relates to Cercospora beticola. Briefly: In vivo fungicidal evaluation, Sugar Beet Cercospora. Further: ranges in brackets are in %. As to conditions: 200 ppm, host plants sprayed, dried, then inoculated.
The next assay concerns Alternaria solani. Briefly: In vivo fungicidal evaluation, Tomato Early Blight. Further: ranges in brackets are in %. The note with it: 200 ppm, host plants sprayed, dried, then inoculated.
For assay [1], the system named is Puccinia recondita f. sp. tritici. Briefly: In vivo fungicidal evaluation, Wheat Leaf Rust. Further: ranges in brackets are in %. As to conditions: 200 ppm, host plants sprayed, dried, then inoculated.
In assay [2] the test system is Erysiphe graminis f. sp. tritici. Briefly: In vivo fungicidal evaluation, Wheat Powdery Mildew. Further: ranges in brackets are in %. The note with it: 200 ppm, host plants sprayed, dried, then inoculated.
Assay [3] has as its system Fusarium oxysporum f. sp. cucumerinum (Fusoxc). Briefly: In vitro fungicidal evaluation, mycelial growth inhibition in nutrient broth. Further: ranges in brackets are in %. The assay is classed as cell-based. As to conditions: 25 ppm, 3-4 days at 21°C, rated visually. A digest of the protocol:
(§1)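 Compounds in acetone were dispersed into ground fungal mycelia suspended in nutrient broth and incubated 3-4 days at 21°C. Growth inhibition was scored visually on a rating scale, with values averaged across repeat tests.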

Assay [4] concerns Pseudocercosporella herpotrichoides (Psdche). Described as above. As to conditions: 25 ppm, 3-4 days at 21°C, rated visually. The format is cell-based. A digest of the protocol: as §1; further: ranges in brackets are in %
The test system of a further assay is Pythium ultimum (Pythul). The assay is described as above. The note with it: 25 ppm, 3-4 days at 21°C, rated visually. The assay is classed as cell-based. The method, boiled down:
as §1

Assay [5] deals with Rhizoctonia solani (Rhizso). Described as above. The format is cell-based. The note with it: 25 ppm, 3-4 days at 21°C, rated visually. The method, boiled down:
as §1

The subject of assay [6] is Spodoptera eridania 3rd instar larvae, southern army-worm. Briefly: Insecticide evaluation, southern armyworm leaf dip. The format is in vivo. The note with it: 300 ppm, 5 days. The procedure: (§2) The following tests show the efficacy of the compounds as insecticides and acaricides. The evaluations are conducted with solutions of test compounds dissolved or dispersed in 50/50 acetone/water mixtures. The test compound is technical material dissolved or dispersed in said acetone/water mixtures in sufficient amounts to provide the concentrations set forth in Table I below. All concentrations reported herein are in terms of active ingredient. All tests are conducted in a laboratory maintained at about 27 °C. The rating system employed is as follows:
A sieva lima bean leaf expanded to 7 to 8 cm in length is dipped in the test suspension with agitation for 3 seconds and placed in a hood to dry. The leaf is then placed in a 100x10 mm petri dish containing a damp filter paper on the bottom and 10 3rd instar caterpillars. The dish is maintained for 5 days before observations are made of mortality, reduced feeding or any interference with normal moulting.

Assay [7] has as its system Tetranychus urticae (OP-resistant strain), 2-spotted spider mite. Briefly: Acaricide evaluation, 2-spotted spider mite plant dip. The note with it: 300 ppm, 2 days, adult kill. The format is in vivo. As for the experimental part: as §2
Sieva lima bean plants with primary leaves expaned to 7 to 8 cm are selected and cut back to one plant per pot. A small piece is cut from a leaf taken from the main colony and placed on each leaf of the test plants. This is done about 2 hours before treatment to allow the mites to move over to the test plant and to lay eggs. The size of the cut piece is varied to obtain about 100 mites per leaf. At the time of the treatment, the piece of leaf used to transfer the mites is removed and discarded. The mite-infested plants are dipped in the test formulation for 3 seconds with agitation and set in the hood to dry. Plants are kept for 2 days before estimates of adult kill are made.

For assay [8], the system named is Heliothis virenscens, 3rd instar tobacco budworm. Briefly: Insecticide evaluation, tobacco budworm cotton cotyledon dip. As to conditions: 300 ppm, 3 days. The format is in vivo. The procedure:
as §2
Cotton cotyledons are dipped in the test formulation and allowed to dry in a hood. When dry, each is cut into quarters and ten sections placed individually in 30 mL plastic medicine cups containing a 5 to 7 mm long piece of damp dental wick. One 3rd instar caterpillar is added to each cup and a cardboard lid placed on the cup. Treatments are maintained for 3 days before mortality counts and estimates of reduction in feeding damage are made.

Assay [9] has as its system Diabrotica undecimpunctata howardi, 3rd instar southern corn rootworm. Briefly: Insecticide evaluation, southern corn rootworm soil test. The format is in vivo. Set-up: key: 0 = no effect; 1 = 10-25% kill; 2 = 26-35% kill; 3 = 36-45% kill; 4 = 46-55% kill; 5 = 56-65% kill; 6 = 66-75% kill; 7 = 76-85% kill; 8 = 86-99% kill; 9 = 100% kill; - = No evaluation. The note with it: 50 kg/ha (1.25 mg active ingredient per jar), 6 days. As for the experimental part:
as §2
One cc of fine talc is placed in a 30 mL wide-mouth screw-top glass jar. One mL of the appropriate acetone test solution is pipetted onto the talc so as to provide 1.25 mg of active ingredient per jar. The jars are set under a gentle air flow until the acetone is evaporated. The dried talc is loosened, 1 cc of millet seed is added to serve as food for the insects and 25 mL of moist soil is added to each jar. The jars are capped and the contents thoroughly mixed on a Vortex Mixer. Following this, ten 3rd instar rootworms are added to each jar and the jars are loosely capped to allow air exchange for the larvae. The treatments are held for 6 days before mortality counts are made. Missing larvae are presumed dead, since they decompose rapidly and can not be found. The concentration used in this test corresponds to approximately 50 kg/ha.
Wherever PHTHUL growth inhibition rating is given: ranges in brackets are in %.
Wherever RHIZSO growth inhibition rating is given: ranges in brackets are in %.

For “(4-Isopropylpyridinio)methyldiphenylboron [Compound 1]”, in the assay on Venturia inaequalis, the “AS (Apple Scab) disease control rating” value is given as 9 (100). For the same substance, the “GDM (Grape Downy Mildew) disease control rating” value with Plasmopara viticola is 9 (100). The “PB (Pepper Botrytis) disease control rating” value in the assay with Botrytis cinerea was 7 (90 - 95). In addition, the “RB (Rice Blast) disease control rating” value in the assay on Pyricularia oryzae is 7 (90 - 95). Moreover, in the assay on Cercospora beticola, the “SBC (Sugar Beet Cercospora) disease control rating” value is listed as 0 (0). Moreover, the “TEB (Tomato Early Blight) disease control rating” value with Alternaria solani was 7 (90 - 95). The “WLR (Wheat Leaf Rust) disease control rating” value in assay [1] was 8 (96 - 99). The “WPM (Wheat Powdery Mildew) disease control rating” value in [2] is on record as 8 (96 - 99). Moreover, the “FUSOXC growth inhibition rating” value in assay [3] is 9 (100). Also, the “PSDCHE growth inhibition rating” value in assay [4] is on record as 9 (100). Also, the “PHTHUL growth inhibition rating” value in the assay with Pythium ultimum (Pythul) is on record as 7 (90 - 99). Besides, the “RHIZSO growth inhibition rating” value in assay [5] is listed as 9 (100). In addition, the “Southern Armyworm kill rating” value in assay [6] is 8 (8 = 86-99% kill). For the same substance, in assay [7], the “OP. Res. Mites kill rating” value is 8 (8 = 86-99% kill). In addition, the “Tobacco Budworm Larvae kill rating” value in assay [8] is 8 (8 = 86-99% kill). Moreover, the “Southern Corn Rootworm kill rating” value in assay [9] is given as 0.
With “(Isoquinolinio)methyldiphenylboron [Compound 6]”, the “AS (Apple Scab) disease control rating” value in the assay with Venturia inaequalis is given as 9 (100). Moreover, the “GDM (Grape Downy Mildew) disease control rating” value in the assay with Plasmopara viticola was 9 (100). Further, the “PB (Pepper Botrytis) disease control rating” value in the assay with Botrytis cinerea is 0 (0). Also, the “RB (Rice Blast) disease control rating” value in the assay on Pyricularia oryzae is 6 (75 - 89). In addition, the “SBC (Sugar Beet Cercospora) disease control rating” value in the assay on Cercospora beticola was 0 (0). In the assay on Alternaria solani, the “TEB (Tomato Early Blight) disease control rating” value is given as 0 (0). Further, the “WLR (Wheat Leaf Rust) disease control rating” value in [1] is recorded as 9 (100). The “WPM (Wheat Powdery Mildew) disease control rating” value in assay [2] is given as 8 (96 - 99). The “FUSOXC growth inhibition rating” value in [3] is given as 9 (100). Also, the “PSDCHE growth inhibition rating” value in assay [4] is given as 9 (100). Further, in the assay on Pythium ultimum (Pythul), the “PHTHUL growth inhibition rating” value is reported as 9 (100). Moreover, in assay [5], the “RHIZSO growth inhibition rating” value is 7 (90 - 99). Further, in assay [6], the “Southern Armyworm kill rating” value was 9 (9 = 100% kill). In assay [7], the “OP. Res. Mites kill rating” value is recorded as 8 (8 = 86-99% kill). Moreover, in assay [8], the “Tobacco Budworm Larvae kill rating” value is recorded as 8 (8 = 86-99% kill). The “Southern Corn Rootworm kill rating” value in assay [9] is 9 (9 = 100% kill).
